30 compounds from PMC8286840, “Identifying SARS-CoV-2 antiviral compounds by screening for small molecule inhibitors of Nsp3 papain-like protease” (Biochemical Journal, 2021) can be followed below.

In assay [1] the target is T1, SARS-CoV-2 PLpro (nsp3 1564–1878) (Severe acute respiratory syndrome coronavirus 2, UniProt P0DTD1). Nature of the assay: biochemical. Conditions: low concentration screen, read-out: % of control remaining. Set-up: FRET-quenched peptide (Pro3) cleavage by PLpro, 10 min pre-incubation, slope over 20 min, normalised to no-compound control.
Assay [2] deals with T1, SARS-CoV-2 PLpro (nsp3 1564–1878). Kind of assay: biochemical. Set-up: FRET-quenched peptide (Pro3) cleavage by PLpro, 10 min pre-incubation, slope over 20 min, normalised to no-compound control. As to conditions: high concentration screen, read-out: % of control remaining.

Counter-ions that a name gives are not always drawn. Like-named read-outs stand apart in the source and are kept apart here.

Turning to `Cn1c(=O)cc(N2CCC[C@@H](N)C2)n(Cc2ccccc2C#N)c1=O` [Alogliptin (SYR-322)], the remaining activity at 1.25 µM in assay [1] (Well no.=5179) stood at 104%. Moreover, the remaining activity at 3.75 µM in assay [2] (Well no.=5179) is 97.5%.

As for `O=C1c2c(O)cccc2C([C@@H]2O[C@H](CO)[C@@H](O)[C@H](O)[C@H]2O)c2cc(CO)cc(O)c21` (stereo partly shown) [Aloin], the remaining activity at 1.25 µM in assay [1] (Well no.=8338) came to 99.2%. For the same compound, the remaining activity at 3.75 µM in assay [2] (Well no.=8338) was found to be 97.8%.

On to `CCCCc1c(-c2ccc(O)cc2)[nH]c2nccnc12` [Aloisine A, RP107], for which, in assay [1] (Well no.=2318), the remaining activity at 1.25 µM amounted to 97.4%. Moreover, in assay [2] (Well no.=2318), the remaining activity at 3.75 µM turned out to be 95.3%.

`CCCCc1c(-c2ccc(OC)cc2)[nH]c2nccnc12` [Aloisine, RP106]: in assay [1] (Well no.=2320), the remaining activity at 1.25 µM is 96.9%. Besides, the remaining activity at 3.75 µM in assay [2] (Well no.=2320) came out at 94.7%.

As for `C1=C2CCCN[C@H]2[C@@H]2C[C@H]1[C@H]1CCCCN1C2` [Aloperine], the remaining activity at 1.25 µM in assay [1] (Well no.=5240) was found to be 94.5%. Besides, the remaining activity at 3.75 µM in assay [2] (Well no.=5240) was 94%.

For `Cc1[nH]cnc1CN1CCc2c(c3ccccc3n2C)C1=O` [Alosetron (Hydrochloride)], in assay [1] (Well no.=8289), the remaining activity at 1.25 µM stood at 105%. The remaining activity at 3.75 µM in assay [2] (Well no.=8289) was determined as 99.5%.

On to `C[C@]12CC[C@@H]3c4ccc(O)cc4CC[C@H]3[C@@H]1CC[C@H]2O` [Alpha-Estradiol], for which, in assay [1] (Well no.=6693), the remaining activity at 1.25 µM was 98.9%. The remaining activity at 3.75 µM in assay [2] (Well no.=6693) turned out to be 93.1%.

With `CCCN(CCC)C(=O)Cc1c(-c2ccc(Cl)cc2)nc2ccc(Cl)cn12` [Alpidem], in assay [1] (Well no.=5821), the remaining activity at 1.25 µM stood at 108%. The remaining activity at 3.75 µM in assay [2] (Well no.=5821) is 106%.

Turning to `C=CCc1ccccc1OCC(O)CNC(C)C` (stereo not shown) [Alprenolol (hydrochloride)], the remaining activity at 1.25 µM in assay [1] (Well no.=6327) turned out to be 102%. In assay [2] (Well no.=6327), the remaining activity at 3.75 µM came to 103%.

As to `C=CCc1ccccc1OCC(O)CNC(C)C` (stereo not shown) [Alprenolol hydrochloride], the remaining activity at 1.25 µM in assay [1] (Well no.=342) is 95.5%. Besides, the remaining activity at 3.75 µM in assay [2] (Well no.=342) stood at 97.7%.

For the compound `O=C1Cc2c([nH]c3ccc([N+](=O)[O-])cc23)-c2ccccc2N1` [Alsterpaullone], the remaining activity at 1.25 µM in assay [1] (Well no.=255) was determined as 104%; in assay [1] (Well no.=2314) it was 101%. For the same compound, the remaining activity at 3.75 µM is 106% in assay [2] (Well no.=255) and 105% in assay [2] (Well no.=2314).

With `C=CC[C@]1(O)CC[C@H]2[C@@H]3CCC4=CC(=O)CCC4=C3C=C[C@@]21C` [Altrenogest], the remaining activity at 1.25 µM in assay [1] (Well no.=5020) worked out at 94.3%. Further, the remaining activity at 3.75 µM in assay [2] (Well no.=5020) worked out at 93.9%.

As to `CN(C)c1nc(N(C)C)nc(N(C)C)n1` [Altretamine], the values for the remaining activity at 1.25 µM in assay [1] (Well no.=8) and in assay [1] (Well no.=2081) were 96% and 101%, respectively. The remaining activity at 3.75 µM in assay [2] (Well no.=8) is 98.2%; in assay [2] (Well no.=2081), 101%.

On to `Cc1c(-c2ccnn2C)cc(C(=O)NCc2ccc(S(C)(=O)=O)cn2)c(=O)n1-c1cccc(C(F)(F)F)c1` [Alvelestat (AZD9668)], for which the remaining activity at 1.25 µM in assay [1] (Well no.=9174) turned out to be 95.1%. Also, the remaining activity at 3.75 µM in assay [2] (Well no.=9174) came out at 83.8%.

In the case of `CCN(CCCc1ccccc1)CCCc1ccccc1` [Alverine (citrate)], the remaining activity at 1.25 µM in assay [1] (Well no.=8203) was determined as 106%. Besides, the remaining activity at 3.75 µM in assay [2] (Well no.=8203) was determined as 106%.

`CCN(CCCc1ccccc1)CCCc1ccccc1` [Alverine Citrate]: the remaining activity at 1.25 µM in assay [1] (Well no.=5277) was determined as 91.4%. For the same compound, the remaining activity at 3.75 µM in assay [2] (Well no.=5277) was found to be 91.3%.

Consider `C[C@H]1CN(C[C@H](Cc2ccccc2)C(=O)NCC(=O)O)CC[C@@]1(C)c1cccc(O)c1` [Alvimopan (dihydrate)], for which the remaining activity at 1.25 µM in assay [1] (Well no.=6559) turned out to be 100%. In addition, the remaining activity at 3.75 µM in assay [2] (Well no.=6559) stood at 101%.

With `C[C@H]1CN(C[C@H](Cc2ccccc2)C(=O)NCC(=O)O)CC[C@@]1(C)c1cccc(O)c1` [Alvimopan], the remaining activity at 1.25 µM in assay [1] (Well no.=6051) is 95.7%. In addition, in assay [2] (Well no.=6051), the remaining activity at 3.75 µM was 96.9%.

Consider `CN1CC[C@H](c2c(O)cc(O)c3c(=O)cc(-c4ccccc4Cl)oc23)[C@H](O)C1` [Alvocidib], for which the remaining activity at 1.25 µM in assay [1] (Well no.=2695) worked out at 98.7%. Besides, in assay [2] (Well no.=2695), the remaining activity at 3.75 µM came out at 104%.

As to `NC12CC3CC(CC(C3)C1)C2` [Amantadine hydrochloride], the remaining activity at 1.25 µM in assay [1] (Well no.=9) was 104%. Besides, the remaining activity at 3.75 µM in assay [2] (Well no.=9) was 103%.

As for `NC12CC3CC(CC(C3)C1)C2` [Amantadine.HCl], the remaining activity at 1.25 µM in assay [1] (Well no.=1653) is 97.9%. The remaining activity at 3.75 µM in assay [2] (Well no.=1653) is 97.4%.

Consider `O=S(=O)(O)c1ccc2c(N=Nc3ccc(S(=O)(=O)O)c4ccccc34)c(O)c(S(=O)(=O)O)cc2c1` [Amaranth], for which the remaining activity at 1.25 µM in assay [1] (Well no.=8462) worked out at 98.1%. The remaining activity at 3.75 µM in assay [2] (Well no.=8462) turned out to be 97.5%.

For `COC(c1ccccc1)(c1ccccc1)[C@H](Oc1nc(C)cc(C)n1)C(=O)O` [Ambrisentan], the remaining activity at 1.25 µM in assay [1] (Well no.=5270) is 94.8%; in assay [1] (Well no.=6365), 102%. The remaining activity at 3.75 µM in assay [2] (Well no.=5270) worked out at 92.5%; in assay [2] (Well no.=6365), 98.8%.

For the compound `Nc1c(Br)cc(Br)cc1CN[C@H]1CC[C@H](O)CC1` [Ambroxol HCl], in assay [1] (Well no.=5311), the remaining activity at 1.25 µM was 99.4%. Moreover, the remaining activity at 3.75 µM in assay [2] (Well no.=5311) amounted to 97.1%.

`Nc1c(Br)cc(Br)cc1CN[C@H]1CC[C@H](O)CC1` [Ambroxol]: the values for the remaining activity at 1.25 µM in assay [1] (Well no.=1614) and in assay [1] (Well no.=3892) were 102% and 98.1%, respectively. The figures for the remaining activity at 3.75 µM in assay [2] (Well no.=1614) and in assay [2] (Well no.=3892) were 101% and 97.9%, respectively.

In the case of `COc1cc(N)cn[n+]1-c1ccccc1` [Amezinium (methylsulfate)], the remaining activity at 1.25 µM in assay [1] (Well no.=6567) came out at 106%. Moreover, in assay [2] (Well no.=6567), the remaining activity at 3.75 µM came out at 104%.

As for `CCn1cc(C(=O)O)c(=O)c2ccc(Cc3ccccc3)nc21` [Amfonelic acid], the remaining activity at 1.25 µM in assay [1] (Well no.=446) was 98.4%. For the same compound, the remaining activity at 3.75 µM in assay [2] (Well no.=446) came to 98.5%.

With `NCCCNCCSP(=O)(O)O` [Amifostine], the remaining activity at 1.25 µM in assay [1] (Well no.=115) is 103%; in assay [1] (Well no.=2115), 99.3%. Moreover, the remaining activity at 3.75 µM worked out at 104% in assay [2] (Well no.=115) and 102% in assay [2] (Well no.=2115).

Take `NCC[C@H](O)C(=O)N[C@@H]1C[C@H](N)[C@@H](O[C@H]2O[C@H](CN)[C@@H](O)[C@H](O)[C@H]2O)[C@H](O)[C@H]1O[C@H]1O[C@H](CO)[C@@H](O)[C@H](N)[C@H]1O` [Amikacin hydrate]: the remaining activity at 1.25 µM in assay [1] (Well no.=5355) came to 97.3%. Further, in assay [2] (Well no.=5355), the remaining activity at 3.75 µM worked out at 101%.

With `NCC[C@H](O)C(=O)N[C@@H]1C[C@H](N)[C@@H](O[C@H]2O[C@H](CN)[C@@H](O)[C@H](O)[C@H]2O)[C@H](O)[C@H]1O[C@H]1O[C@H](CO)[C@@H](O)[C@H](N)[C@H]1O` [Amikacin sulfate], the remaining activity at 1.25 µM in assay [1] (Well no.=5313) amounted to 107%. Further, the remaining activity at 3.75 µM in assay [2] (Well no.=5313) is 99.9%.
